Measured values reported in PubChem BioAssay (NCI).
Values joined by “and” are separate entries in the source; they are usually repeats but may differ in a detail not shown here. Equal entries are not always repeated.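 Method: 48-hour compound exposure of cells in 96-well plates, five concentrations, linear interpolation of endpoints. GI50 = concentration required for 50% inhibition of growth. Definition used: TGI = concentration required for complete inhibition of growth.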

How the values were obtained:
Experiment in all cases: NCI-60 cell line screen, 48 h
IGROV1 ovarian = test system: IGROV1 ovarian
MDA-MB-435 = test system: MDA-MB-435
HCT-15 colon = test system: HCT-15 colon
UACC-62 melanoma = test system: UACC-62 melanoma
SW-620 colon = test system: SW-620 colon
HCT-116 colon = test system: HCT-116 colon
RXF 393 renal = test system: RXF 393 renal
NCI-H460 lung = test system: NCI-H460 lung
NCI-H226 lung = test system: NCI-H226 lung
T-47D breast = test system: T-47D breast

Structure (SMILES)	TGI (IGROV1 ovarian)	TGI (MDA-MB-435)	TGI (HCT-15 colon)	TGI (UACC-62 melanoma)	TGI (SW-620 colon)	TGI (HCT-116 colon)	TGI (RXF 393 renal)	TGI (NCI-H460 lung)	TGI (NCI-H226 lung)	TGI (T-47D breast)	GI50 (HCT-15 colon)	GI50 (NCI-H226 lung)
CCC1(O)CC(OC2CC(N(C)C)C(OC3CC(O)C(OC4CCC(=O)C(C)O4)C(C)O3)C(C)O2)c2c(O)c3c(c(O)c2C1C(=O)OC)C(=O)c1cccc(O)c1C3=O (configuration not stated)	0.0281 µM	0.101 µM	0.0543 µM and 0.09 µM	0.0235 µM	0.0394 µM							
Cc1sc2nc3n(c(=O)c2c1C)N=C(c1ccc([N+](=O)[O-])cc1)CS3		> 100 µM	> 100 µM	> 100 µM	> 100 µM	> 100 µM	> 100 µM	> 100 µM	> 100 µM	> 100 µM		
C#CCCCC(=O)N(C(=O)CS(=O)CC)c1ccccc1 (configuration not stated)	> 100 µM	> 100 µM	> 100 µM	> 100 µM	> 100 µM	> 100 µM	> 100 µM	> 100 µM	> 100 µM	> 100 µM		
C/C=C1\CC(C(=O)OCC)CCCCCCCCCCC1=O (configuration not stated)	> 100 µM	38 µM	> 100 µM	> 100 µM	> 100 µM	> 100 µM	> 100 µM	> 100 µM	> 100 µM	> 100 µM		
Cc1cccc(NC2=NCCO2)c1Cl	> 100 µM	> 100 µM	> 100 µM	> 100 µM	> 100 µM	> 100 µM	> 100 µM	> 100 µM	> 100 µM	> 100 µM		
COc1ccc(N2C(=O)C3CC4=CC(=O)C[C@H]4[C@H]32)cc1 (some centres not stated)		> 100 µM	> 100 µM	> 100 µM	> 100 µM	> 100 µM	> 100 µM	> 100 µM	> 100 µM	> 100 µM		
CN(CCO)/N=N/c1[nH]ncc1C(N)=O	> 100 µM		> 100 µM	> 100 µM	> 100 µM	> 100 µM	> 100 µM	> 100 µM	> 100 µM			
c1ccc(CCn2cncn2)cc1	> 100 µM		> 100 µM	> 100 µM	> 100 µM	> 100 µM		> 100 µM	> 100 µM			
c1ccc(C2[C@@H]3CCCc4ccccc4C3=NN2c2ccccc2)cc1 (some centres not stated)	> 100 µM		> 100 µM		> 100 µM	> 100 µM	> 100 µM	> 100 µM	> 100 µM			
CN(C)CCn1nc(N)c2nc3cc(C(F)(F)F)ccc3nc21	> 100 µM	> 100 µM	> 100 µM	> 100 µM	> 100 µM	> 100 µM	> 100 µM	> 100 µM	> 100 µM			
COc1ccccc1NS(=O)(=O)c1ccc2ncn(NS(=O)(=O)c3ccc(Cl)cc3)c(=O)c2c1	> 100 µM	> 100 µM	> 100 µM	> 100 µM	> 100 µM	> 100 µM		> 100 µM	> 100 µM			
COc1cc2c(c(OC)c1OC)-c1ccc(SC)cc1C(=O)CC2	> 100 µM	> 100 µM	> 100 µM	> 100 µM	> 100 µM		> 100 µM	> 32.1 µM		> 100 µM		
CC(C)c1cccc(C(C)C)c1OS(=O)(=O)NC(=O)OC(C(F)(F)F)C(F)(F)F	> 100 µM	> 100 µM	> 100 µM		> 100 µM	> 100 µM		> 100 µM	> 100 µM			
CC1CN=C(c2ccc(COc3ccc(C4=NCC(C)N4)cc3)cc2)N1 (configuration not stated)	> 100 µM	> 100 µM	> 100 µM	> 100 µM	> 100 µM	> 100 µM	> 100 µM	> 100 µM		> 100 µM		
CN1C(=O)N(C)C2(CCN(CCCCCCF)CC2)C1=O	> 100 µM	71.1 µM	> 100 µM	> 100 µM	> 100 µM	> 100 µM	> 100 µM		> 100 µM	> 100 µM		
CCOC(=O)CC[C@H](N)C(=O)N[C@H](Cc1ccc(N(CCCl)CCCl)cc1)C(=O)OCC	9.37 µM	> 47.7 µM	10.6 µM		14.1 µM	> 36.2 µM	3.66 µM	16.2 µM	> 47.7 µM	6.55 µM		
CCCCCCCCCCSCC(CO)NC(=O)/C=C/c1c(C)[nH]c(=O)[nH]c1=O (configuration not stated)	> 50 µM		> 50 µM	7.71 µM and 9.48 µM	> 50 µM	> 50 µM	> 25.7 µM	18.2 µM and 49.5 µM	> 50 µM and 12.4 µM		5.55 µM and 14.7 µM	2180 nM
COc1ccc(C2C(Cl)C(=O)N2NC(=O)Cc2ccccc2)cc1OC (configuration not stated)	> 100 µM		> 100 µM	> 100 µM	> 100 µM	> 100 µM	> 100 µM	> 100 µM	> 100 µM			

Structure (SMILES)	TGI (IGROV1 ovarian)	TGI (MDA-MB-435)	TGI (HCT-15 colon)	TGI (UACC-62 melanoma)	TGI (SW-620 colon)	TGI (HCT-116 colon)	TGI (RXF 393 renal)	TGI (NCI-H460 lung)	TGI (NCI-H226 lung)	TGI (T-47D breast)	GI50 (HCT-15 colon)	GI50 (NCI-H226 lung)
CCN(CC)CCNc1ccc2ncn3c4cc(=O)ccc4c(O)c1c23	24.3 µM		17 µM	14 µM	21 µM	15.5 µM	3.68 µM	9.61 µM	11.4 µM			
Cc1cc(C)c(N=Nc2c(O)c(S(=O)(=O)O)cc3cc(S(=O)(=O)O)ccc23)cc1C	> 100 µM	> 100 µM	> 100 µM	> 100 µM	> 100 µM	> 100 µM	> 100 µM		> 100 µM	> 100 µM		
Cc1cc(O)c(C(C)C)cc1N=Cc1ccccc1O	22.4 µM	4.37 µM	> 59.5 µM	21.7 µM	> 20.4 µM	13.5 µM	2.64 µM	24.6 µM	20.4 µM			
N=C(c1cccs1)C1(N2CCCCC2)CCCCC1	39.6 µM	37.8 µM	29.7 µM	31 µM	34.7 µM	> 100 µM	29.5 µM	30 µM		27.1 µM		
O=[N+]([O-])c1cc(Cl)ccc1S(=O)(=O)N1CCCc2cc(Cl)ccc21	> 100 µM	> 100 µM	> 100 µM	> 100 µM	> 100 µM	> 100 µM	> 100 µM	> 100 µM	> 100 µM			
CC(=O)O[C@H]1CC[C@H]2[C@@H]3CCC(C(C)=O)[C@H](C(=O)O)[C@H]3CC[C@]12C (some centres not stated)	> 100 µM	> 100 µM	> 100 µM	> 100 µM	> 100 µM		> 100 µM	> 100 µM				
O=C1C[C@H](c2ccc(O)c(O)c2)Oc2cc(O)cc(O)c21	> 100 µM		> 100 µM	> 100 µM	> 100 µM	> 100 µM	> 100 µM	> 100 µM	> 100 µM			
CCCCNC(=S)Nc1nc(C(=O)NNC(=O)c2ccccc2)cs1	40.6 µM	47.8 µM	26.1 µM	41.4 µM	30.2 µM	27.1 µM			67.8 µM	39.4 µM		
COc1ccccc1N=C1SCCN1C(=S)Nc1ccc(S(=O)(=O)/N=C/N(C)C)cc1		76.9 µM	> 100 µM	75.9 µM	> 100 µM	> 100 µM	45.8 µM	> 100 µM	> 100 µM	> 100 µM		
O=C1N[C@@H](COc2ccc(C=Nc3ccc(CCc4ccc(N=Cc5ccc(OC[C@@H]6COC(=O)N6)cc5)cc4)cc3)cc2)CO1	> 100 µM	> 100 µM	> 100 µM	> 100 µM	> 100 µM	> 100 µM	> 100 µM		> 100 µM	> 100 µM		
CC(=O)n1ccc2c(Cl)ncnc21	> 100 µM		> 100 µM	> 100 µM	> 100 µM	> 100 µM	> 100 µM	> 100 µM				
COc1cccc(-c2cc(=O)c3cc(Cl)cnc3[nH]2)c1	> 100 µM		31.9 µM	> 55.6 µM	> 100 µM	10.6 µM	> 100 µM	> 100 µM	1.57 µM	> 100 µM		
COC(=O)C1C2CC3C(OC(=O)C31)C2OC(=O)[C@](OC)(c1ccccc1)C(F)(F)F (some centres not stated)	> 100 µM		> 100 µM		> 100 µM	> 100 µM	> 100 µM	> 100 µM	> 100 µM			
O=C1NC2(C=Cc3c(ccc4ccccc34)O2)Oc2ccccc21 (configuration not stated)	> 100 µM		71.2 µM	> 100 µM	> 100 µM	40.8 µM	43.3 µM	> 100 µM	74.1 µM			
CCN(CC)CCC(=O)c1ccc(Oc2ccc(F)cc2)cc1	36 µM	32.3 µM	36.7 µM	31.9 µM	32.7 µM	30.3 µM	30.5 µM		> 100 µM	42 µM		
CN(C)c1ccc(/C=c2/c3cc([N+](=O)[O-])ccc3n3c2cc(-c2ccccc2)[n+]3C)cc1	2.29 µM	1.84 µM	42.1 µM	1.87 µM	2.75 µM	5.84 µM		11.7 µM	36 µM	1.81 µM		
Nc1ccc(-c2nc3ccccc3s2)cc1Br	> 100 µM	> 100 µM	> 100 µM	> 100 µM	> 100 µM		> 100 µM	> 100 µM	> 100 µM	> 100 µM		
CC(C)(C)OC(=O)N1N=NC2C3OC(CC3=O)C21 (configuration not stated)	> 100 µM		> 100 µM	> 100 µM	> 100 µM	> 100 µM		> 100 µM	8.96 µM			
